According to BigSolDB 2.1:

CCCc1nc(C(C)(C)O)c(C(=O)OCC)n1Cc1ccc(-c2ccccc2-c2nnnn2C(c2ccccc2)(c2ccccc2)c2ccccc2)cc1
solubility (mole fraction)
Conditions	278.15 K	283.15 K	288.15 K	293.15 K	298.15 K	303.15 K	308.15 K	313.15 K	318.15 K
in DMAc	0.00501	0.00574	0.00655	0.00756	0.00872	0.01	0.0114	0.0129	0.0148
in DMF	0.00117	0.00148	0.00186	0.00229	0.0028	0.00337	0.004	0.00471	0.00553
in acetone	0.000617	0.000854	0.00115	0.00154	0.00197	0.00242	0.0029	0.0035	0.00417
in acetonitrile	0.00027	0.000315	0.000373	0.00044	0.000513	0.000597	0.000689	0.00079	0.000901
in cyclohexanone	0.00729	0.00844	0.00967	0.0112	0.0128	0.0147	0.0166	0.0187	0.0211
in ethanol	8.35e-05	0.000102	0.000124	0.000147	0.000174	0.000206	0.000239	0.000277	0.000318
in ethyl acetate	0.00177	0.0021	0.00256	0.00308	0.00372	0.00445	0.00523	0.00607	0.00699
in isobutanol	0.00012	0.000145	0.000177	0.000216	0.000255	0.000302	0.000352	0.000408	0.000472
in isopropanol	5.42e-05	6.87e-05	8.5e-05	0.000102	0.000122	0.000144	0.00017	0.000197	0.000228
in methanol	4.18e-05	5.35e-05	6.64e-05	8.11e-05	9.59e-05	0.000112	0.000131	0.000152	0.000175
in n-butanol	0.000177	0.000211	0.000253	0.000298	0.000348	0.000401	0.000458	0.000521	0.000588
in n-propanol	0.000144	0.000175	0.000213	0.000253	0.000298	0.000346	0.000397	0.000454	0.000519
in toluene	0.00257	0.0032	0.00403	0.00503	0.00608	0.00738	0.00882	0.0104	0.0124
